One series concerns the target T1, tyrosinase (Mus musculus, UniProt P11344).
T1 construct: the supernatant obtained constitutes the cell lysate used as tyrosinase source in the enzymatic assay; endogenous in cells; host or cells: B16F1 murine melanoma cells, cultured with alpha-MSH; detergent lysate supernatant
T1 sequence (P11344 19-533): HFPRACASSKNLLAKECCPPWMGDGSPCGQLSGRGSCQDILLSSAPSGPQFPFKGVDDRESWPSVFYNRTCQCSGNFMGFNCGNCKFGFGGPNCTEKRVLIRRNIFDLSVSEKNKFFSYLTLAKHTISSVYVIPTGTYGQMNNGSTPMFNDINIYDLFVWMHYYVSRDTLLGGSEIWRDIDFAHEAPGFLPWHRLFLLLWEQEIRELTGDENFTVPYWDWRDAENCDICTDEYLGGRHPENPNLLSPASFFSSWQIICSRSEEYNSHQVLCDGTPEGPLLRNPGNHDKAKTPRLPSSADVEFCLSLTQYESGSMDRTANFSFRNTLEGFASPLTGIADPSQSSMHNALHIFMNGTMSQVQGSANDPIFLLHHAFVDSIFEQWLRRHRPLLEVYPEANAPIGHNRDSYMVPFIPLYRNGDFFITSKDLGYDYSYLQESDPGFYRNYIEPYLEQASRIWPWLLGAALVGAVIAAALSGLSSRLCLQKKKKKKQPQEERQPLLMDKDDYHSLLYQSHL
Briefly: Tyrosinase activity inhibition assay (B16F1 cell lysate, L-tyrosine substrate, MBTH, absorbance at 520 nm). It is filed as biochemical. As to conditions: lysate of B16F1 cells (murine melanoma line) as tyrosinase source, 37° C., reading at 520 nm after 6 hours. The procedure: The activity of the inhibitors is measured starting from a lysate of B16F1 cells (murine melanoma line). In the presence of the L-tyrosine substrate, the tyrosinase present in these cells catalyses the hydroxylation of L-tyrosine to give L-DOPA and then the oxidation of the L-DOPA to give dopaquinone. In the presence of MBTH (3-methyl-2-benzothiazolinone hydrazone), the dopaquinone is trapped so as to form a pink complex which absorbs at 520 nm.
The B16F1 cells are cultured in DMEM medium+10% foetal calf serum+10^−9 M α-MSH for 4 days at 37° C. under 7% CO2. They are treated with trypsin, washed with PBS, counted and pelleted. The pellet is taken up at 10^7 cells/ml in lysis buffer (10 mM sodium phosphate, pH 6.8−1% Igepal) and the suspension is treated with ultrasound for 10 seconds. After centrifugation for 30 minutes at 4000 rpm, the supernatant obtained constitutes the cell lysate used as tyrosinase source in the enzymatic assay.
The assays are carried out in duplicate in 384-well plates in a total volume of 50 μl. Each well contains: • 40 μl of solution containing 1.25 mM L-tyrosine, 6.25 μM L-DOPA (cofactor) and 3.75 mM MBTH in buffer B (62.25 mM sodium phosphate, pH 6.8-2.5% dimethylformamide), • 5 μl of inhibitor diluted in DMSO, • 5 μl of cell lysate diluted to ½ in 50 mM Tris HCl buffer, pH 7.5.
The plate is incubated at 37° C. and a spectrophotometric reading is carried out at 520 nm after incubating for 6 hours. In order to avoid any possible absorption of the products, the system employs corrected absorbance (absorbance at time 6 h—absorbance at time zero).
The inhibitors are assayed in terms of dose-response so as to calculate an IC50 (dose which inhibits 50% of the enzymatic activity).
Several internal controls are added to each experiment: • control for 100% activity: the 5 μl of inhibitor are replaced with 5 μl of DMSO, • control for 50% activity: the 5 μl of inhibitor are replaced with 5 μl of phenylthiourea at 300 μM in DMSO, • control for 0% activity: the L-tyrosine substrate is replaced with buffer B.

`COn1cc[nH]c1=S` [Compound 1, 1-methoxy-1,3-dihydroimidazole-2-thione] registered a melting point of 111 to 111.8 °C.
Still for that read-out and setting: for `S=c1[nH]ccn1OCc1cccnc1` [Compound 2, 1-(pyridin-3-ylmethoxy)-1,3-dihydroimidazole-2-thione] the value was 128 to 129 °C.
Turning to `COn1ccn(C)c1=S` [Compound 3, 1-methoxy-3-methyl-1,3-dihydroimidazole-2-thione], the melting point is 56.9 to 57.5 °C. On tyrosinase, this compound yielded an IC50 of 72000 nM.
At tyrosinase, `On1c(-c2ccccc2)c[nH]c1=S` [Compound 4, 1-hydroxy-5-phenyl-1,3-dihydroimidazole-2-thione] registered a half-maximal inhibitory concentration (IC50) of 890 nM.
On to `On1cc(-c2ccccc2)[nH]c1=S` [Compound 5, 1-hydroxy-4-phenyl-1,3-dihydroimidazole-2-thione], for which the melting point was 196.3 °C.
Consider `COc1ccc(-c2c[nH]c(=S)n2O)cc1` [Compound 6, 1-hydroxy-5-(4-methoxyphenyl)-1,3-dihydroimidazole-2-thione], for which the melting point was 150 °C. The same compound came in with an IC50 against tyrosinase of 820 nM.
Consider `COc1ccc(-c2cn(O)c(=S)[nH]2)cc1` [Compound 7, 1-hydroxy-4-(4-methoxyphenyl)-1,3-dihydroimidazole-2-thione], for which the melting point is 160 °C.
With `On1c(-c2cccs2)c[nH]c1=S` [Compound 8, 1-hydroxy-5-(thiophen-2-yl)-1,3-dihydroimidazole-2-thione], the melting point lay within 183.6 to 184.8 °C. Also, the IC50 against tyrosinase is 3700 nM.

By melting point is commonly meant the temperature, or range, at which the solid turns liquid. Usually IC50 stands for the concentration that gives 50% inhibition. Read a high IC50 as weaker potency.

Source of the values: patent publication US20100010049A1, “Novel Tyrosinase inhibitors and pharmaceutical/cosmetic applications thereof” (GALDERMA RESEARCH & DEVELOPMENT, priority 2006, published 2010).
